# Data from patent US20180043059A1, “3D Ti-6Al-4V Structures with Hydrogel Matrix” (priority 2016, published 2018).
# “Also recorded” adds a separate entry of the source. Like-named read-outs stand apart in the source and are kept apart here.
# Experiments:
# [1] = test system: MC3T3-E1 pre-osteoblast cells
# [2] = test system: MC3T3-E1 cells; test: Fluorescent microscopy of pre-osteoblasts grown in Ti-6Al-4V foam under DFM; assay type: cell-based, mouse; details: 3.2 μM DFM (low concentration), 21 days
# Description: Pre-osteoblasts seeded on foam structures were cultured for 7 days to test for similar cell behavior as reported by Nune et al. Cells were seeded at 200,000 cells/well in a 12 well plate, 1 mL total media volume and then stained with Hoechst 33342 cell nuclei dye. A second experiment was performed once the appropriate concentration of DFM was selected. Pre-osteoblasts are seeded at the previously described concentration in the same conditions but exposed to 3.2 μM DFM. Proliferation is observed after 21 days exposure. A second stain is performed with Vybrant® CFDA SE Cell Tracer Kit to visually determine the viability of cells without disturbing the layer of cells grown in the foams. Because the scaffold is solid metal, light cannot be transmitted through it if fully dense. However, due to the foam nature of the scaffold, light may be transmitted though the medium and a visible image can be obtained if the metal section is thin enough. Despite the fact that a thin section makes fluorescent microscopy feasible, since the scaffold is 3D, focus is lost in the z axis and there is a lack of clarity for morphological details. Improvements on microscopy can be done by using Confocal Microscopy instead of Fluorescent Microscopy in order to view in more detail cellular morphology and microcapillary formation. […]
# [3] = test system: HUVECs; test: Induction of angiogenesis (capillary formation) in Matrigel and in foams with gel; assay type: cell-based, Human
# Description: It has been previously reported that MC3T3-E1 pre-osteoblast cells undergo differentiation and proliferation when grown in porous foams in glutamine containing media. It has been extensively reported that endothelial cells are able to form capillaries in gels when exposed to DFM [28]. In this experiment, a live angiogenesis monitoring experiment is performed in order to analyze capillarity maturation and cell survival. This analysis is achieved by staining HUVECs with PHK26 Red Fluorescent Dye (Sigma) and MC3T3-E1 cells with PKH67 Green fluorescent dye (Sigma). Both dyes stain cell membranes in an unspecific way, while maintaining cellular viability for an extended period of time. MC3T3-E1 cells are grown in foams as described above, but under hypoxic conditions (3.2 μM DFM). The Ti-6Al-4V foams are pre-incubated with pre-osteoblasts for a total of 7 days, with a negative hypoxia control being cells without any DFM. The cells grown on the foams and gel are monitored throughout the duration of this experiment. The foams are removed from the wells and placed in a 12 well plate and Matrigel® (Corning Life Sciences) will be added until the foam is completely covered. In order to observe microcapillarity formation upon exposure of HUVECs to DFM, the manufacturer specifications are followed. Briefly, Matrigel® is thawed according to specifications (4° C. overnight) and added to a 24 well cell culture plate and allowed to gelate also according to specifications (30-60 minutes at 37° C.). […] The cell suspension is incubated at 37° C., 5% CO2 for 16 to 18 hours on the Matrigel coated plate for 16-18 hours. The formation of microcapillaries is measured by confocal microscopy.
# [4] = test system: HUVECs; test: Total protein content (Bradford); assay type: cell-based, Human; details: endothelial cells exposed to DFM
# Description: Cells are grown for 6 h, 24 h and 48 h in the presence of DFM at the previously specified 1:5 dilutions. After the desired time periods they are washed with cold 1×PBS and lysed with Radioimmunoprecipitation (RIPA) protein lysis buffer (0.2% Triton X-100+protease inhibitor cocktail) for 30 min in an ice bath. The total protein content in the cells is estimated using the Bradford spectrophotometric protein assay. Briefly, 10 μL of the cell lysate will be mixed with 100 μL of Bradford Reagent (Sigma) and re-suspended to homogenize the solution on a 96 well plate. The absorbance will be measured at 595 nm. A standard plot of absorbance as a function of bovine serum albumin (BSA) concentration will be obtained to determine the concentration value of the experimental and control samples.
# [5] = test system: Hif-1α; test: Western blot analysis of Hif-1α in HUVECs exposed to DFM; assay type: cell-based, Human
# Description: To further quantify the expression of specific proteins, a western blot analysis is performed for Hif-1α and VEGF165. The western blot analysis was made using the cell lysate previously described. A Sodium Dodecyl Sulfate-Polyacrylamide Gel Electrophoresis (SDS-PAGE) was made (7.5% acrylamide for Hif-1α (93 kDa) and 12% acrylamide for VEGF165 (38 kDa)). The separated proteins are then transferred to a PVDF membrane. The Hif-1α antibody at a 1:1,000 dilution in 1% BSA in 1×TBST buffer was incubated for one hour at room temperature, followed by three 10 min washes with TBST. A secondary anti-rabbit IgG HRP conjugated antibody was incubated for 30 minutes at room temperature, followed also by subsequent washes with TB ST.
# [6] = test system: MC3T3-E1 cells; test: Alizarin Red S (ARS) mineralization assay; assay type: cell-based, mouse
# From the text: Because it is expected that pre-osteoblasts differentiate into osteoblasts under a hypoxic condition, cells should mineralize calcium in the ECM. The study of mineralization of ECM can be viewed as a measure or potential for bone formation. In this regard, Alizarin Red Assay (ARS) (Sigma-Aldrich) is used qualitatively and quantitatively to indicate the presence of calcium in the matrix. […] The negative control for this experiment is cells grown in 3D printed foams in complete media with no added glutamate. After incubation, the samples are washed carefully with PBS without disturbing the cell layer and fixed with 4% paraformaldehyde for 30 minutes. The 3D foam structures were then stained with alizarin red (pH˜4.1) in the dark and at room temperature for 30 minutes. Samples are qualitatively studied via light microscope after rinsing with PBS. The calcium nodules should appear red. To conduct quantitative analysis, 10% cetyl pyridinium chloride will be added to remove the alizarin red stain. The absorbance of the solution is measured at 570 nm OD with a spectrophotometric microplate reader.
# [7] = test system: MC3T3-E1 cells
# [8] = test system: HUVECs; details: cited from earlier work
# [9] = test system: HUVECs; test: Combinatorial dose of DFM and D(+) glucose, MTS viability, HUVECs; assay type: cell-based, Human; details: 5 mM glucose, 24 hours
# Description: (§1) Cells that undergo hypoxia mimetic stress mediated by Hif-1α have been reported to increase their metabolic demands. To test how metabolic demands change in cells exposed to DFM, both HUVECs and MC3T3-E1 cells were exposed to 3.2 μM DFM, 5 mM D(+) glucose and a combination of 3.2 μM DFM+5 mM D(+) glucose for 24 hours. A negative control consisted of both cell types without treatment. The viability of cells was determined by MTS viability assay. The purpose of this approach is to determine whether D(+) glucose can be used as an additive in the hydrogel matrix to improve wound healing and help drive vascularization and osteogenesis process.
# [10] = test system: MC3T3-E1 cells; test: Combinatorial dose of DFM and D(+) glucose, MTS viability, MC3T3-E1; assay type: cell-based, mouse; details: 5 mM glucose, 24 hours
# Description: as §1
compound,measurement,setting,value
CoCl2,MTS metabolism,[1],greatly increases
same,cellular metabolism (MTS) across drug concentrations,[1],almost no variation in cellular metabolism
same,viability at lower concentrations (summary),[1],E1 cells exposed to DFM. Viability increases
"CC(=O)N(O)CCCCCNC(=O)CCC(=O)N(O)CCCCCNC(=O)CCC(=O)N(O)CCCCCN.CS(=O)(=O)O [DFM, Deferoxamine Mesylate]",proliferation of pre-osteoblasts in the foam (Hoechst 33342 staining),[2],proliferating
same,maintenance of capillary structure,[3]; HUVECs exposed to 2 mM DFM in Matrigel,maintain their structure for an extended period of time
same,capillary formation in Matrigel,"[3]; HUVECs exposed to 2 mM DFM, 18 hour period, not apparent in control without DFM",readily formed capillaries; also recorded: HUVECs readily undergo migration to form
same,vascular structure formation in foams with gel,"[3]; Ti-6Al-4V foam + Matrigel with pre-incubated MC3T3-E1, HUVECs treated with 2 mM DFM, FIG. 7",HUVECs readily undergo migration to form
same,levels of total protein synthesized,[4],No obvious changes
same,total intracellular Hif-1α bands,[5]; 48 hours exposure,still producing definitive bands
same,Hif-1α levels with increasing DFM concentration (summary),[5]; HUVECs,Hif-1α levels increased with increasing DFM
same,Hif-1α expression,[5]; high doses (2 mM) vs normoxia,notably increase
same,"cellular production of hydroxyapatite, cells grown in foams","[6]; Ti-6Al-4V foams, 3.2 μM DFM",enhanced; also recorded: DFM enhances the cellular production of
same,synthesis levels of hydroxyapatite versus control,"[6]; foams, 3.2 μM DFM, 14 days",increase on par in both settings
same,amount of cellular hydroxyapatite versus control,"[6]; foams, 3.2 μM DFM, 21 days, FIG. 6",dramatically increases
same,amount of hydroxyapatite versus control,"[6]; foams, 3.2 μM DFM, initially (7 days)",comparatively similar amounts of hydroxyapatite to control cells
same,"production of mineralized calcium / hydroxyapatite, cells grown in plates",[6]; plates,increases the production of mineralized calcium; also recorded: DFM enhances the cellular production of
same,expression of mineralized calcium (ARS),"[6]; plates, 640 nM DFM, 21 days, FIG. 5",highest expression of mineralized calcium
same,expression of hydroxyapatite compared to control cells,"[6]; plates, 640 nM DFM, every instance (7, 14, 21 days)",always in greater amount
same,cellular metabolism (MTS) across drug concentrations,[1]; 24 hours exposure,almost no variation in cellular metabolism
same,MTS metabolism,[1]; exposure equal or longer than 72 hours,greatly increases
same,viability at lower concentrations (summary),[1]; lower concentrations,E1 cells exposed to DFM. Viability increases
same,cellular viability (summary),[1]; mouse,Cellular viability does not decrease in MC3T3-
same,cellular proliferation (cell count),"[7]; 24 hour exposure, remaining dilutions, compared to unexposed control","constant cell population numbers, with a slight decrease in numbers"
same,cellular proliferation (cell count),[7]; lowest concentrations (3.2 μM and 640 nM),observable increase in proliferation
same,DFM concentration that can stimulate a survival response,[8]; previous reports,~10 µM
same,DFM concentration at which HUVECs undergo angiogenesis,[8]; previously reported,approximately 10 μM
O=C[C@H](O)[C@@H](O)[C@H](O)[C@H](O)CO [D(+) glucose],viability response to additional D(+) glucose,"[9]; compared with MC3T3-E1, listed as D(+) Glucose",Augments Viability Faster
same,viability response to additional D(+) glucose,"[9]; compared with MC3T3-E1, listed as glucose",more positive response
same,viability response to additional D(+) glucose,[10],not
